The text below walks through data of PubChem BioAssay (NCI).

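The compound was tested at five concentrations on cells cultured in 96-well plates, with a 48-hour exposure period. At the GI50, growth is halved. TGI marks complete inhibition of growth.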 A value given as a limit tells only on which side of the number the result lay.

Test systems include KM12 colon; COLO 205 colon; ACHN renal; A498 renal; SF-539 CNS; A549 NSCLC; OVCAR-5 ovarian; UACC-62 melanoma; SN12C renal; EKVX NSCLC.
What all share (assay): NCI tumour cell line growth inhibition, 48 h

For the compound `COc1ccc(-c2c(N)noc2-c2cc(OC)c3c(c2)OCCO3)cc1`, the GI50 in the assay with KM12 colon is less than 0.01 µM; in the assay with COLO 205 colon, less than 0.01 µM; with ACHN renal, 0.131 µM; in the assay with A498 renal, less than 0.01 µM; in the assay on SF-539 CNS, 0.0121 µM; in the assay with A549 NSCLC it was 0.0101 µM. Also, the GI50 is 0.0542 µM in the assay with OVCAR-5 ovarian, less than 0.01 µM in the assay with UACC-62 melanoma, 0.0438 µM in the assay on SN12C renal and 0.046 µM in the assay with EKVX NSCLC. Besides, the TGI in the assay on KM12 colon was 3.8 µM; with COLO 205 colon, 0.0398 µM; with ACHN renal it was more than 100 µM; with A498 renal, 0.303 µM; with SF-539 CNS it was 1.28 µM; with A549 NSCLC it was more than 41.6 µM. Further, the TGI in the assay with OVCAR-5 ovarian is more than 100 µM; in the assay with UACC-62 melanoma it was 28.2 µM; in the assay on SN12C renal, more than 100 µM; in the assay on EKVX NSCLC it was more than 100 µM.
For the compound `COc1cc2c(c(OC)c1OC)C(=O)NCCC2`, the TGI with KM12 colon, with COLO 205 colon, in the assay on ACHN renal, in the assay with A498 renal, in the assay with SF-539 CNS and in the assay on A549 NSCLC was more than 100 µM throughout. Further, the TGI with OVCAR-5 ovarian, in the assay with UACC-62 melanoma, in the assay with SN12C renal and in the assay with EKVX NSCLC was more than 100 µM in each case.
With `COc1ccc(C(O)c2cc3c(N)c(C(=O)Nc4cccc(Br)c4C)sc3nc2C)cc1` (stereo not given), the GI50 in the assay with KM12 colon was 0.152 µM; with COLO 205 colon, 1.04 µM; with ACHN renal it was 0.216 µM; in the assay with A498 renal it was 0.082 µM; in the assay with SF-539 CNS it was 0.131 µM; in the assay on A549 NSCLC it was 0.221 µM. The GI50 with OVCAR-5 ovarian was 0.666 µM; in the assay with UACC-62 melanoma, 0.141 µM; in the assay on SN12C renal it was 0.246 µM; in the assay with EKVX NSCLC it was 0.259 µM. Further, the TGI was 11.7 µM in the assay with KM12 colon; more than 11 µM with COLO 205 colon; more than 26.4 µM in the assay on ACHN renal; 1.28 µM with A498 renal; 2.88 µM in the assay with SF-539 CNS; more than 16.8 µM in the assay with A549 NSCLC. The TGI in the assay with OVCAR-5 ovarian is more than 25.6 µM; in the assay with UACC-62 melanoma, more than 31 µM; with SN12C renal, more than 33.3 µM; in the assay with EKVX NSCLC, more than 33.3 µM.
Consider `COc1cc(/C=C2\SC(N3CCCCC3)=NC2=O)ccc1OCCCCCCOc1ccc(/C=C2\SC(N3CCCCC3)=NC2=O)cc1OC`, for which the GI50 was 11.1 µM with KM12 colon; 19.9 µM with COLO 205 colon; 15.1 µM in the assay with ACHN renal; 12.8 µM in the assay on A498 renal; 6.95 µM in the assay on SF-539 CNS; 11.8 µM in the assay on A549 NSCLC. In addition, the GI50 with OVCAR-5 ovarian was 22.9 µM; in the assay on UACC-62 melanoma, 16.1 µM; with SN12C renal it was 19 µM; in the assay on EKVX NSCLC it was 12 µM. Also, the TGI is 25 µM in the assay on KM12 colon; more than 100 µM in the assay on COLO 205 colon; 34.2 µM in the assay on ACHN renal; 46.2 µM in the assay on A498 renal; 24.2 µM in the assay on SF-539 CNS; 30.9 µM with A549 NSCLC. The TGI in the assay on OVCAR-5 ovarian is 59.1 µM; in the assay with UACC-62 melanoma, 67.1 µM; with SN12C renal, more than 100 µM; with EKVX NSCLC, 76.6 µM.
With `COc1ccc(/C=N/NS(=O)(=O)c2ccccc2)cc1`, the TGI in the assay with KM12 colon, in the assay on COLO 205 colon, in the assay on ACHN renal, with A498 renal, with SF-539 CNS and in the assay with A549 NSCLC was more than 100 µM in each case. The TGI in the assay on OVCAR-5 ovarian, in the assay on UACC-62 melanoma, in the assay with SN12C renal and in the assay on EKVX NSCLC was more than 100 µM in each case.
On to `CC1(C)C2CCC13C(=O)C1OC3(C2)C2C(=O)c3c(ccc4c3ccc3ccccc34)C(=O)C12` (stereo not given), for which the GI50 in the assay with KM12 colon was 57.6 µM; in the assay with COLO 205 colon, more than 54 µM; with ACHN renal, 57.4 µM; in the assay on A498 renal, more than 100 µM; in the assay with SF-539 CNS it was more than 64.4 µM; with A549 NSCLC, more than 60.1 µM. Besides, the GI50 is more than 100 µM in the assay with OVCAR-5 ovarian, more than 100 µM in the assay with UACC-62 melanoma, more than 73.3 µM with SN12C renal and more than 66.3 µM in the assay with EKVX NSCLC. Besides, the TGI in the assay on KM12 colon, with COLO 205 colon, in the assay with ACHN renal, in the assay with A498 renal, in the assay on SF-539 CNS and in the assay with A549 NSCLC was more than 100 µM throughout. Further, the TGI in the assay with OVCAR-5 ovarian, with UACC-62 melanoma, in the assay on SN12C renal and in the assay with EKVX NSCLC was more than 100 µM each time.
Turning to `CCOC1Oc2ccc(C)cc2C(=O)/C1=C\Nc1ccc(S(N)(=O)=O)cc1` (stereo not given), the GI50 with KM12 colon is 12 µM; with COLO 205 colon, 16.8 µM; with ACHN renal, 12.6 µM; with A498 renal, 17 µM; in the assay with SF-539 CNS it was 7.49 µM; with A549 NSCLC, 13.9 µM. For the same compound, the GI50 in the assay on OVCAR-5 ovarian is 0.0219 µM; with UACC-62 melanoma, 12.5 µM; with SN12C renal, 11.6 µM; with EKVX NSCLC, 9.43 µM. In addition, the TGI is 32.5 µM with KM12 colon; 45.3 µM in the assay on COLO 205 colon; 45 µM in the assay on ACHN renal; 46.5 µM in the assay on A498 renal; 24.2 µM in the assay with SF-539 CNS; more than 50 µM in the assay with A549 NSCLC. Further, the TGI is 14.1 µM with OVCAR-5 ovarian, 38.2 µM in the assay on UACC-62 melanoma, 31.9 µM with SN12C renal and 31.4 µM with EKVX NSCLC.
On to `Cn1c(=O)c2c(nc(N/N=C/c3ccccc3C(=O)O)n2C)n(C)c1=O`, for which the TGI in the assay on KM12 colon, in the assay on COLO 205 colon, in the assay with ACHN renal, in the assay with A498 renal, in the assay with SF-539 CNS and in the assay with A549 NSCLC was more than 100 µM throughout. In addition, the TGI with OVCAR-5 ovarian, in the assay on UACC-62 melanoma, in the assay on SN12C renal and in the assay on EKVX NSCLC was more than 100 µM in each case.
In the case of `Cc1cc(Cl)ccc1NC(=O)C1C(=O)N(c2ccc(Cl)cc2C)C(=O)/C1=N\NC(N)=S` (stereo not given), the TGI with KM12 colon is more than 100 µM; with COLO 205 colon it was more than 100 µM; in the assay on ACHN renal, more than 100 µM; in the assay with A498 renal it was 72.4 µM; in the assay on SF-539 CNS, 70.6 µM; in the assay with A549 NSCLC, more than 100 µM. In addition, the TGI with OVCAR-5 ovarian was 53.9 µM; in the assay on UACC-62 melanoma it was 86.4 µM; in the assay with SN12C renal, 96.3 µM; with EKVX NSCLC, 51.8 µM.
